Assay results taken from patent publication US9499550B2 (BRISTOL-MYERS SQUIBB COMPANY, priority 2012, dated 2016).
Read-outs that look alike come from different tables or passages of the source.

Tests used:
[1] = test system: HCV genotype 1a (H77 strain) replicon in HUH-7 cells; test: HCV replicon luciferase reporter assay, genotype 1a; type: cell-based; details: Hepatitis C virus, Huh-7, 72 h, 3 days incubation, read-out: LE_1a (EC50, range)
Procedure, shortened: (§1)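 Replicon inhibition for both genotypes was measured as Renilla luciferase signal (EnduRen, 7.5 μM final, 2 h) after 3-day, 37° C exposure of replicon-bearing HUH-7 cells in 4% FCS DMEM, 0.5% DMSO. The 1b construct carries S1179I; the 1a H77 construct carries P1496L and S2204I. Twenty-point, 3-fold dilutions were fitted four-parametrically for EC50, and CC50 was taken from multiplexed Cell Titer-Blue.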

[2] = test system: HCV genotype 1b (Con1) replicon in HUH-7 cells; test: HCV replicon luciferase reporter assay, genotype 1b; type: cell-based; details: Hepatitis C virus, Huh-7, 72 h, 3 days incubation, read-out: LE_1b (EC50, range)
Procedure, shortened: as §1

[3] = HCV genotype 1a replicon luciferase
[4] = HCV genotype 1b replicon luciferase

SMILES	EC50 [1, 3] [nM]	EC50 [2, 4] [nM]	also measured
COc1ccc2c(O[C@@H]3C[C@H]4C(=O)N[C@]5(C(=O)NS(=O)(=O)C6(CF)CC6)C[C@H]5/C=C\CC[C@@H](C)C[C@@H](C)[C@H](NC(=O)O[C@H](C)C(F)(F)F)C(=O)N4C3)nc(N(C)C)cc2c1 [Compound 3128, (R)-1,1,1-trifluoropropan-2-yl((2R,6S,7R,9R,13aS,14aR,16aS,Z)-2-((3-(dimethylamino)-6-methoxyisoquinolin-1-yl)oxy)-14a-(((1-(fluoromethyl)cyclopropyl)sulfonyl)carbamoyl)-7,9-dimethyl-5,16-dioxo-1,2,3,5,6,7,8,9,10,11,13a,14,14a,15,16,16a-hexadecahydrocyclopropa[e]pyrrolo[1,2-a][1,4]diazacyclopentadecin-6-yl)carbamate]	–	–	EC50 ([1]; HCV genotype 1a replicon luciferase assay, range class): 4.82 to 103 nM; EC50 ([2]; HCV genotype 1b replicon luciferase assay, range class): < 5.46 nM
CCn1nc(O[C@@H]2C[C@H]3C(=O)N[C@]4(C(=O)NS(=O)(=O)C5CC5)C[C@H]4/C=C\CC[C@H](C)C[C@@H](C)[C@H](NC(=O)c4ccc(N(C)C)cc4)C(=O)N3C2)c2ccccc2c1=O [Compound 5073, (2R,6S,7R,9S,13aS,14aR,16aS,Z)—N-(cyclopropylsulfonyl)-6-(4-(dimethylamino)benzamido)-2-((3-ethyl-4-oxo-3,4-dihydrophthalazin-1-yl)oxy)-7,9-dimethyl-5,16-dioxo-1,2,3,5,6,7,8,9,10,11,13a,14,14a,15,16,16a-hexadecahydrocyclopropa[e]pyrrolo[1,2-a][1,4]diazacyclopentadecine-14a-carboxamide]	> 87.4	> 87.4	–
COc1cc2c(OC)cnc(O[C@@H]3C[C@H]4C(=O)N[C@]5(C(=O)NS(=O)(=O)C6(C)CC6)C[C@H]5/C=C\CC[C@@H](C)C[C@@H](C)[C@H](NC(=O)OC(C)(C)C)C(=O)N4C3)c2cc1F [Compound 4070, tert-butyl (2R,6S,7R,9R,13aS,14aR,16aS,Z)-2-(7-fluoro-4,6-dimethoxyisoquinolin-1-yloxy)-7,9-dimethyl-14a-(1-methylcyclopropylsulfonylcarbamoyl)-5,16-dioxo-1,2,3,5,6,7,8,9,10,11,13a,14,14a,15,16,16a-hexadecahydrocyclopropa[e]pyrrolo[1,2-a][1,4]diazacyclopentadecin-6-ylcarbamate]	< 5.46	< 5.46	–
COc1cc2c(OC)cnc(O[C@@H]3C[C@H]4C(=O)N[C@]5(C(=O)NS(=O)(=O)C6(C(F)F)CC6)C[C@H]5/C=C\CC[C@@H](C)C[C@@H](C)[C@H](NC(=O)OC(C)(C)C(F)(F)F)C(=O)N4C3)c2cc1F [Compound 4095]	–	–	EC50 ([1]; GETYPE1A, HCV genotype 1a replicon luciferase): < 5.46 nM; EC50 ([2]; GETYPE1B, HCV genotype 1b replicon luciferase): < 5.46 nM
CCOc1cnc(O[C@@H]2C[C@H]3C(=O)N[C@]4(C(=O)NS(=O)(=O)C5(C)CC5)C[C@H]4/C=C\CC[C@@H](C)C[C@@H](C)[C@H](NC(=O)Oc4ccccc4)C(=O)N3C2)c2ccccc12 [Compound 4140, phenyl (2R,6S,7R,9R,13aS,14aR,16aS,Z)-2-(4-ethoxyisoquinolin-1-yloxy)-7,9-dimethyl-14a-(1-methylcyclopropylsulfonylcarbamoyl)-5,16-dioxo-1,2,3,5,6,7,8,9,10,11,13a,14,14a,15,16,16a-hexadecahydrocyclopropa[e]pyrrolo[1,2-a][1,4]diazacyclopentadecin-6-ylcarbamate]	< 5.46	< 5.46	–
CCOc1nnc(O[C@@H]2C[C@H]3C(=O)N[C@]4(C(=O)NS(=O)(=O)C5CC5)C[C@H]4/C=C\CC[C@H](C)C[C@@H](C)[C@H](NC(=O)OC(C)(C)C(F)(F)F)C(=O)N3C2)c2ccccc12 [Compound 5036, 1,1,1-trifluoro-2-methylpropan-2-yl((2R,6S,7R,9S,13aS,14aR,16aS,Z)-14a-((cyclopropylsulfonyl)carbamoyl)-2-((4-ethoxyphthalazin-1-yl)oxy)-7,9-dimethyl-5,16-dioxo-1,2,3,5,6,7,8,9,10,11,13a,14,14a,15,16,16a-hexadecahydrocyclopropa[e]pyrrolo[1,2-a][1,4]diazacyclopentadecin-6-yl)carbamate]	4.82 to 103	4.82 to 103	–
